Assay [1] concerns acute leukemia cell line RS4; 11. Put plainly: MTT proliferation assay, RS4;11 cells. To be noted: Homo sapiens, 72 h after drug administration. Type of assay: cell-based. The source says: (§1) Cell lines for test: acute leukemia cell line RS4; 11 and multiple myeloma cell line MM.1S
(§2) Test method: MTT (thiazole blue) method, which was also called MTT colorimetry assay, was a method used to detect cell survival and growth. The principle of the assay was that the succinate dehydrogenase in mitochondria of living cells could reduce the exogenous MTT to water-insoluble blue-purple crystal formazan and deposit it in the cells, while dead cells have no such function. Dimethyl sulfoxide (DMSO) could dissolve formazan in cells, and its light absorption value was measured at 550 nm wavelength by enzyme-linked immunoassay, which could indirectly reflect the number of living cells. Within a certain range of cell numbers, the amount of MTT crystal formation is proportional to the number of cells. This method has been widely used in the activity detection of some biologically active factors, large-scale anti-tumor drug screening, cytotoxicity test, and tumor radiosensitivity determination.
(§3) The concentration gradient of the compound was as follows: 0-25.6 pM-128 pM-640 pM-3.2 nm-16 nM-80 nM-400 nM-2 μM-10 μM; (n=3)
(§4) 72 h after drug administration, 20 μl per well of MTT working solution (5 mg/ml) was added, and incubated at 37° C. for 4 h, centrifuged in plate centrifuge at 1000 rpm/min for 5 min. 180 μl of medium was aspirated and 150 μl DMSO was added in RS4; 11 groups; 200 μl of medium was aspirated and 150 μl DMSO was added in MM.1S group; the mixture was shaken and mixed on microwell shaker, and the bottom of the plate was wiped, and the optical density (OD) was measured at 550 nm by microplate reader. The IC50 of the half inhibitory concentration was calculated by LOGIT method.

The subject of assay [2] is multiple myeloma cell line MM.1S. Description: MTT proliferation assay, MM.1S cells. In kind it is cell-based. To be noted: Homo sapiens, MM1.S, 72 h after drug administration.
Text: as §1, §2, §3, §4

The term IC50 denotes the concentration at which inhibition is half-maximal. Lower therefore signals higher potency. On to `Cc1sc2c(c1C)C(c1ccc(Cl)cc1)=N[C@@H](CC(=O)Nc1ccc(OCCOCCOCCOCCNc3cccc4c3C(=O)N(C3CCC(=O)NC3=O)C4=O)cc1)c1nnc(C)n1-2` (some centres unmarked) [ARV-825, reference compound], for which the IC50 in assay [1] and in assay [2] was 20 to 100 nM in each case.
As to `Cc1sc2c(c1C)C(c1ccc(Cl)cc1)=N[C@@H](CC(=O)NN1CCN(C(=O)CCC(=O)Nc3cccc4c3CN(C3CCC(=O)NC3=O)C4=O)CC1)c1nnc(C)n1-2` (stereo partly drawn) [Example 1, 4-(4-(2-((S)-4-(4-chlorophenyl)-2,3,9-trimethyl-6H-thieno[3,2-f][1,2,4]triazolo[4,3-a][1,4]diaza-6-yl)acetamido)piperazin-1-yl)-N-(2-(2,6-dioxpiperazin-3-yl)-1-oxoisoindolin-4-yl)-4-oxobutanamide], the IC50 in assay [1] and in assay [2] was less than 20 nM in each case.
For the molecule `Cc1sc2c(c1C)C(c1ccc(Cl)cc1)=N[C@@H](CC(=O)NN1CCN(C(=O)CNc3cccc4c3C(=O)N(C3CCC(=O)NC3=O)C4=O)CC1)c1nnc(C)n1-2` (some centres unmarked) [Example 4], the IC50 in assay [1] and in assay [2] was less than 20 nM in each case.
Regarding `Cc1sc2c(c1C)C(c1ccc(Cl)cc1)=N[C@@H](CC(=O)NN1CCN(C(=O)CCNc3cccc4c3C(=O)N(C3CCC(=O)NC3=O)C4=O)CC1)c1nnc(C)n1-2` (some centres unmarked) [Example 5], the IC50 in assay [1] and in assay [2] was less than 20 nM each time.
Turning to `Cc1sc2c(c1C)C(c1ccc(Cl)cc1)=N[C@@H](CC(=O)NN1CCN(C(=O)CCOCCOCCNc3cccc4c3C(=O)N(C3CCC(=O)NC3=O)C4=O)CC1)c1nnc(C)n1-2` (some centres unmarked) [Example 8], the IC50 is 20 to 100 nM in assay [1] and less than 20 nM in assay [2].
For the molecule `Cc1sc2c(c1C)C(c1ccc(Cl)cc1)=N[C@@H](CC(=O)NN1CCN(C(=O)CCOCCOCCOCCNc3cccc4c3C(=O)N(C3CCC(=O)NC3=O)C4=O)CC1)c1nnc(C)n1-2` (some centres unmarked) [Example 9], the results for the IC50 in assay [1] and in assay [2] were less than 20 nM and 20 to 100 nM, respectively.
As for `Cc1sc2c(c1C)C(c1ccc(Cl)cc1)=N[C@@H](CC(=O)NN1CCN(C(=O)CNc3cccc4c3CN(C3CCC(=O)NC3=O)C4=O)CC1)c1nnc(C)n1-2` (some centres unmarked) [Example 11], the IC50 in assay [1] and in assay [2] was less than 20 nM in each case.
Consider `Cc1sc2c(c1C)C(c1ccc(Cl)cc1)=N[C@@H](CC(=O)NN1CCN(C(=O)CCNc3cccc4c3CN(C3CCC(=O)NC3=O)C4=O)CC1)c1nnc(C)n1-2` (some centres unmarked) [Example 12], for which the IC50 in assay [1] and in assay [2] was less than 20 nM in each case.
On to `Cc1sc2c(c1C)C(c1ccc(Cl)cc1)=N[C@@H](CC(=O)NN1CCN(C(=O)COc3cccc4c3C(=O)N(C3CCC(=O)NC3=O)C4=O)CC1)c1nnc(C)n1-2` (some centres unmarked) [Example 15], for which the IC50 in assay [1] and in assay [2] was less than 20 nM throughout.
As for `Cc1sc2c(c1C)C(c1ccc(Cl)cc1)=N[C@@H](CC(=O)N1CCN(NC(=O)CCC(=O)Nc3cccc4c3CN(C3CCC(=O)NC3=O)C4=O)CC1)c1nnc(C)n1-2` (some centres unmarked) [Example 16], the IC50 in assay [1] and in assay [2] was less than 20 nM throughout.
For `Cc1sc2c(c1C)C(c1ccc(Cl)cc1)=N[C@@H](CC(=O)N1CCN(NC(=O)CNc3cccc4c3C(=O)N(C3CCC(=O)NC3=O)C4=O)CC1)c1nnc(C)n1-2` (some centres unmarked) [Example 19], the IC50 in assay [1] and in assay [2] was less than 20 nM in each case.
As for `Cc1sc2c(c1C)C(c1ccc(Cl)cc1)=N[C@@H](CC(=O)N1CCN(NC(=O)CCNc3cccc4c3C(=O)N(C3CCC(=O)NC3=O)C4=O)CC1)c1nnc(C)n1-2` (some centres unmarked) [Example 20], the IC50 in assay [1] and in assay [2] was less than 20 nM in each case.
For the molecule `Cc1sc2c(c1C)C(c1ccc(Cl)cc1)=N[C@@H](CC(=O)N1CCN(NC(=O)CNc3cccc4c3CN(C3CCC(=O)NC3=O)C4=O)CC1)c1nnc(C)n1-2` (some centres unmarked) [Example 26], the IC50 in assay [1] and in assay [2] was 20 to 100 nM throughout.
As for `Cc1sc2c(c1C)C(c1ccc(Cl)cc1)=N[C@@H](CC(=O)NNC(=O)CCC(=O)Nc1cccc3c1CN(C1CCC(=O)NC1=O)C3=O)c1nnc(C)n1-2` (some centres unmarked) [Example 31], the IC50 in assay [1] and in assay [2] was 20 to 100 nM in each case.
As to `Cc1sc2c(c1C)C(c1ccc(Cl)cc1)=N[C@@H](CC(=O)OC(C)(C)C)c1nnc(C)n1-2` [JQ1, tert-butyl(S)-2-(4-(4-chlorophenyl)-2,3,9-trimethyl-6H-thieno[3,2-f][1,2,4]triazolo[4,3-a][1,4]diazepine-6-yl)acetate, reference compound], the IC50 in assay [1] and in assay [2] was not below 100 nM each time.
On to `Cc1sc2c(c1C)C(c1ccc(Cl)cc1)=N[C@@H](CC(=O)NCCCCNC(=O)COc1cccc3c1C(=O)N(C1CCC(=O)NC1=O)C3=O)c1nnc(C)n1-2` (some centres unmarked) [dBET1, reference compound], for which the IC50 in assay [1] and in assay [2] was not below 100 nM throughout.

Source of the values: US12358925B2, “Targeted ubiquitination degradation BRD4 protein compound, preparation method therefor and application thereof” (CSPC ZHONGQI PHARMACEUTICAL TECHNOLOGY (SHIJIAZHUANG) CO., …, priority 2019, dated 2025).
